# Reference: US5736533A, “Bacterial inhibition with an oligosaccharide compound” (Neose Technologies, Inc., priority 1995, dated 1998)
# Several values for one entry are separate records, joined by “and”; a condition that tells them apart may be missing. Equal entries are not always repeated. Where two headings read alike, the source gives them in different places.
# Tests used:
# Streptococcus pneumoniae = conditions: Andersson et al J. Exp. Med. (1983); cited from earlier work
# [1] = system: H. influenzae (strain 46519); experiment: inhibition of adherence of H. influenzae (strain 46519) to epithelial cells; assay type: cell-based; conditions: Haemophilus influenzae, Epithelial cell, read-out: IC50 [mean (SD)]
# Text: (§1) A method similar to that of Rostand, K. and Esko, (1993) J. Biol. Chem. 268 pp 24053-3, which studied the binding of radiolabelled P. aeruginosa to CHO cells was used to test for the binding inhibition of oligosaccharide compounds. For the studies described herein, S. pneumoniae (strains R-6, P70, and other clinical respiratory isolates) were labelled by culture in lysine-deficient tryptic soy broth containing ^3 H-lysine. The tryptic soy broth was made deficient in lysine by pre-treating it with lysine decarboxylase from E. coli. The bacteria were cultured for 4-5 hours, at which point the culture was in exponential growth. The bacteria were harvested and washed in Leibovitz L-15 Medium supplemented with 0.2% low-endotoxin bovine serum albumin. The bacteria were diluted to approximately 3×10^8 /mL, and then mixed 1:1 with either L-15-BSA or with various compounds to be tested. The bacterial mixtures were incubated at room temperature, with gentle agitation on an orbital shaker. After 10-15 min, samples of the bacterial mixtures were transferred to the surface of a confluent monolayer of cultured epithelial cells in a 96-well polystyrene plate. The cells most commonly used were the Wong-Kilbourne derivative of Chang conjunctiva. The human nasopharyngeal cell line Detroit 562, and the human lung cell line A549 were also used. The bacteria were incubated with the cells for 30 min with gentle agitation, at room temperature. The unbound bacteria were washed away with PBS containing 0.2% bovine serum albumin. Scintillant solution was added to the wells, and the plate was put in a microplate scintillation counter for quantitation of bound bacteria.
# (§2) Adhesion of H. influenzae to epithelial cells was performed with the same protocol with the following modifications: The bacteria were cultured overnight in lysine-deficient Haemophilus test media. The bacteria were incubated with the cells at a concentration near 10^7 /mL for 60 min.
# (§3) Using the testing protocol described in Example 2, four strains of bacteria were tested for binding inhibition by different oligosaccharide compounds.
# S. pneumoniae = experiment: inhibition of adherence of S. pneumoniae to respiratory epithelial cells; assay type: cell-based; conditions: Streptococcus pneumoniae
# [2] = system: H. influenzae (strain 39689); experiment: inhibition of adherence of H. influenzae (strain 39689) to epithelial cells; assay type: cell-based; conditions: Haemophilus influenzae, Epithelial cell, read-out: IC50 [mean (SD)]
# Text: as §1, §2, §3
# [3] = system: immunoglobulin E-binding protein; conditions: Feizi et al Biochemistry 1994; cited from earlier work
# Mycoplasma pneumoniae = conditions: Ginsburg et al U.S. Pat. No. 5,225,330, Table I; cited from earlier work
# Escherichia coli = conditions: Ginsburg et al U.S. Pat. No. 5,225,330; cited from earlier work
# Escherichia coli C600 = conditions: Rosenstein et al (1992); cited from earlier work
# Pseudomonas aeruginosa = conditions: Ramphal et al (1991); cited from earlier work
# [4] = system: Pseudomonas aeruginosa M35; conditions: Rosenstein et al (1992); isolate from cystic fibrosis patients; cited from earlier work
# [5] = system: Burkholderia (Pseudomonas) cepacia; experiment: inhibition of adherence of Burkholderia (Pseudomonas) cepacia to respiratory epithelial cells; assay type: cell-based
# Text: as §1, §3
# S. pneumoniae strain AII [6] = experiment: colonization of rabbit lungs with S. pneumoniae in the presence of an adherence-inhibitory oligosaccharide; assay type: in vivo, New Zealand white rabbits; conditions: 100 μM
# Text: Rabbits S. pneumoniae strain AII were mixed with oligosacchardies and administered to New Zealand white rabbits by tracheal instillation, and lung lavage colonies were counted at the indicated time by the method described in Saukkonen, et al., 1991, J. Exp. Med. 173:1143-9.
# S. pneumoniae strain AII [7] = experiment: treatment of rabbits pre-colonized with S. pneumoniae with adherence-reversing oligosaccharide; assay type: in vivo, New Zealand white rabbits
# Method: S. pneumonaie strain AII were administered to New Zealand white rabbits by tracheal instillation. All rabbits were sick at 24 h, with indications of pneumonia. After 24 h oligosaccharide (LNnT) or control (saline) was administered intratracheally. After an additional 24 h lung lavage colonies were counted as described in Example 3.
# [8] = A549, read-out: IC50 [mean (SD)], Monovalent, A549 human lung carcinoma, activated with IL1
# [9] = HUVEC, read-out: IC50 [mean (SD)], Monovalent, HUVEC activated with TNFα or thrombin
# [10] = Epithelial cell, read-out: IC50 [mean (SD)], Monovalent, Chang human conjunctival carcinoma
# [11] = Burkholderia, Calu 3 cells, read-out: IC50 [mean (SD)]
# [12] = experiment 1, inoculum 5 × 10^5 bacteria, intratracheal, 4 day lavage
# [13] = experiment 2, inoculum 5 × 10^5 bacteria, intratracheal, 4 day lavage
# [14] = experiment 3, inoculum 5 × 10^7 bacteria, 24 h lavage
# [15] = Calu-3, read-out: IC50 [mean (SD)], Monovalent, CaLu-3 human lung carcinoma
# [16] = Epithelial cell, read-out: IC50 [mean (SD)], Monovalent, Det-562 human nasopharyngeal carcinoma
compound,measurement,setting,value
NeuAcα2-3Galβ1-4-GlcNAcβ1-3-Galβ1-4-Glc--Cer [compound 3],binding inhibition,Streptococcus pneumoniae,no effect
"CC(=O)N[C@H]1[C@H](O[C@H]2[C@@H](O)[C@@H](CO)O[C@@H](O[C@H]3[C@H](O)[C@@H](O)C(O)O[C@@H]3CO)[C@@H]2O)O[C@H](CO)[C@@H](O[C@@H]2O[C@H](CO)[C@H](O)[C@H](O[C@@H]3O[C@H](CO)[C@H](O)[C@H](O)[C@H]3NC(C)=O)[C@H]2O)[C@@H]1O (stereo partly drawn) [Ga1NAc β1-3 LNnT, GalNAcβ1-3-Galβ1-4-GlcNAcβ1-3-Galβ1-4-Glc]",IC50,[1],7.8 mM
same,IC50,S. pneumoniae; [8],0.08 mM
same,IC50,S. pneumoniae; [9],0.075 mM
same,IC50,[2],> 10 mM
"CC(=O)N[C@H]1[C@H](O[C@H]2[C@@H](O)[C@@H](CO)O[C@@H](O[C@H]3[C@H](O)[C@@H](O)C(O)O[C@@H]3CO)[C@@H]2O)O[C@H](CO)[C@H](O)[C@@H]1O (stereo partly drawn) [Ga1NAc β1-3 Ga1β1-4 Glc, GalNAcβ1-3-Galβ1-4-Glc]",IC50,[1],4.2 mM
same,IC50,S. pneumoniae; [8],0.085 mM
same,IC50,S. pneumoniae; [10],> 6 mM
same,IC50,S. pneumoniae; [9],0.07 mM
same,IC50,[2],10.6 mM
"CC(=O)N[C@H]1[C@H](O[C@H]2[C@@H](O)[C@@H](CO)O[C@@H](O[C@H]3[C@H](O)[C@@H](O)C(O)O[C@@H]3CO)[C@@H]2O)O[C@H](CO)[C@@H](O)[C@@H]1O[C@@H]1O[C@H](CO)[C@H](O)[C@H](O[C@]2(C(=O)O)C[C@H](O)[C@@H](NC(C)=O)[C@H]([C@H](O)[C@H](O)CO)O2)[C@H]1O (stereo partly drawn) [NeuAcα2-3-Galβ1-3-GlcNAcβ1-3-Galβ1-4-Glc, reference compound]",binding by immunoglobulin E-binding protein,[3],strongly bound
sialylparagoboside,binding inhibition,Mycoplasma pneumoniae,no activity
"CC(=O)N[C@H]1[C@H](O[C@H]2[C@@H](O)[C@@H](CO)O[C@@H](O[C@H]3[C@H](O)[C@@H](O)C(O)O[C@@H]3CO)[C@@H]2O)O[C@H](CO)[C@@H](O[C@@H]2O[C@H](CO)[C@H](O)[C@H](O[C@]3(C(=O)O)C[C@H](O)[C@@H](NC(C)=O)[C@H]([C@H](O)[C@H](O)CO)O3)[C@H]2O)[C@@H]1O (stereo partly drawn) [LSTd, NeuAcα2-3-Galβ1-4-GlcNAcβ1-3-Galβ1-4-Glc]",IC50,S. pneumoniae; [8],0.095 mM
same,IC50,S. pneumoniae; [10],0.6 mM
same,IC50,S. pneumoniae; [9],0.09 mM
N-glycolylsialoparagloboside,inhibition,Escherichia coli,inhibition
"CC(=O)N[C@H]1[C@H](O[C@H]2[C@@H](O)[C@@H](CO)O[C@@H](O[C@H]3[C@H](O)[C@@H](O)C(O)O[C@@H]3CO)[C@@H]2O)O[C@H](CO)[C@@H](O[C@@H]2O[C@H](CO[C@]3(C(=O)O)C[C@H](O)[C@@H](NC(C)=O)[C@H]([C@H](O)[C@H](O)CO)O3)[C@H](O)[C@H](O)[C@H]2O)[C@@H]1O (stereo partly drawn) [LSTc, NeuAcα2-6-Galβ1-4-GlcNAcβ1-3-Galβ1-4-Glc]",binding activity,Escherichia coli C600,no activity
same,activity in the direct adhesion assay,Pseudomonas aeruginosa,no activity
same,binding activity,[4],no activity
same,IC50,[5]; [11],1 mM
same,IC50,"[5]; first table (P. cepacia), CaLu-3 lung carcinoma, read-out: IC50",1 mM
same,CFU (lung lavage),S. pneumoniae strain AII [6]; [12],< 10 CFU (colonies/ml lavage fluid)
same,CFU (lung lavage),S. pneumoniae strain AII [6]; [13],0 CFU (colonies/ml lavage fluid)
same,CFU (lung lavage),S. pneumoniae strain AII [6]; [14],0 CFU (colonies/ml lavage fluid)
same,IC50,"S. pneumoniae; A549, first table, A549 lung carcinoma, activated with IL1",0.1 mM
same,IC50,S. pneumoniae; [8],0.069 mM
same,IC50,"S. pneumoniae; Calu-3, first table, CaLu-3 lung carcinoma",4.4 mM
same,IC50,S. pneumoniae; [15],4.4 mM
same,IC50,"S. pneumoniae; Epithelial cell, first table, 1° lung: rat tracheal primary epithelium",0.4 mM
same,IC50,"S. pneumoniae; Epithelial cell, first table, CHANG cells",1.5 mM
same,IC50,"S. pneumoniae; Epithelial cell, first table, Det-562 nasopharyngeal carcinoma",5.4 mM
same,IC50,"S. pneumoniae; Epithelial cell, read-out: IC50 [mean (SD)], Monovalent, 1° lung: rat trachea epithelial monolayer (primary)",0.25 mM
same,IC50,S. pneumoniae; [10],1.4 mM
same,IC50,S. pneumoniae; [16],4 mM
same,IC50,"S. pneumoniae; FaDu, first table, FaDu nasopharyngeal carcinoma",4 mM
same,IC50,"S. pneumoniae; FaDu, read-out: IC50 [mean (SD)], Monovalent, FaDu human nasopharyngeal carcinoma",4.5 mM
same,IC50,"S. pneumoniae; HUVEC, first table, HUVEC activated with TNFα or thrombin",0.1 mM
same,IC50,S. pneumoniae; [9],0.069 mM
same,IC50,[2],> 10 mM
same,binding by immunoglobulin E-binding protein,[3],not bound or is only negligibly bound
"CC(=O)N[C@H]1[C@H](O[C@H]2[C@@H](O)[C@@H](CO)O[C@@H](O[C@H]3[C@H](O)[C@@H](O)C(O)O[C@@H]3CO)[C@@H]2O)O[C@H](CO)[C@@H](O[C@@H]2O[C@H](CO)[C@H](O)[C@H](O)[C@H]2O)[C@@H]1O (stereo partly drawn) [LNnT, Galβ1-4-GlcNAcβ1-3-Galβ1-4-Glc]",binding activity,Escherichia coli C600,high binding activity
same,IC50,[1],> 14 mM
same,binding activity,[4],high binding activity
same,IC50,[5]; [11],5.6 mM
same,condition of treated rabbits,S. pneumoniae strain AII [7]; at 48 h,healthy
same,CFU (lung lavage),"S. pneumoniae strain AII [7]; inoculum 10^5 bacteria, 100 μM intratracheal, lavage 24 h after oligosaccharide treatment and 48 h after bacterial instillation",0 CFU
same,CFU (lung lavage),"S. pneumoniae strain AII [6]; experiment 1, inoculum 5 × 10^5 bacteria, intratracheal, 24 h lavage, 2 rabbits/group, one value per rabbit",8.7 × 10^2 CFU (colonies/ml lavage fluid) and 4.7 × 10^3 CFU (colonies/ml lavage fluid)
same,CFU (lung lavage),S. pneumoniae strain AII [6]; [12],< 10 CFU (colonies/ml lavage fluid)
same,CFU (lung lavage),S. pneumoniae strain AII [6]; [13],0 CFU (colonies/ml lavage fluid)
same,CFU (lung lavage),S. pneumoniae strain AII [6]; [14],0 CFU (colonies/ml lavage fluid)
same,CFU (lung lavage),"S. pneumoniae strain AII [6]; experiment 4, inoculum 10^5 bacteria, intratracheal, 24 h lavage",1.1 × 10^3 CFU (colonies/ml lavage fluid) and 1.4 × 10^3 CFU (colonies/ml lavage fluid)
same,IC50,S. pneumoniae; [8],0.095 mM
same,IC50,S. pneumoniae; [15],> 16 mM
same,IC50,S. pneumoniae; [10],8 mM
same,IC50,S. pneumoniae; [16],7 mM
same,IC50,S. pneumoniae; [9],0.052 mM
same,IC50,[2],> 14 mM
